From PMC7913927, “Leishmanicidal Activity of Betulin Derivatives in Leishmania amazonensis; Effect on Plasma and Mitochondrial Membrane Potential, and Macrophage Nitric Oxide and Superoxide Production” (Microorganisms, 2021)
Several values for one entry are separate records, joined by “and”; a condition that tells them apart may be missing. Equal entries are not always repeated. Entries after “also recorded” stand apart in the source; their conditions may differ. Where two headings read alike, the source gives them in different places.

What was measured:
[1] = test system: J774.1 macrophages, healthy or infected with LTB0016, VE98MR or VE2000MM; experiment: Superoxide (O2−) production, ferricytochrome c reduction; type: cell-based, murine; conditions: LTB0016- and VE98MR-infected macrophages; 48 h; 18: 1 and 2 µM
Description: The intracellular oxidative burst was evaluated by the production of the superoxide anion O2^−, using the method of reduction of ferricytochrome c, previously described. Macrophages from preceding experiments were used after removing the supernatant; the cells pretreated with compounds or AmB as positive control of the experiment were resuspended in 100 µL of Hanks saline (HBSS: 137 mM NaCl, 5.4 mM KCl, 1 mM MgSO4⋅7H2O, 1.3 mM CaCl2⋅H2O, 0.3 mM Na2HPO4, 0.44 mM KH2PO4, 4.2 mM NaHCO3, 5 mM glucose, pH 7.2) and incubated for 1 h in the presence of 2 mg mL^−1 (160 µM) of cytochrome c type III, at 37 °C and 5% CO2. The supernatant was saved to measure the change in optical density at 550 nm. Three independent experiments were performed in duplicate. The superoxide anion concentration was calculated using the reduced molar extinction coefficient of cytochrome c, 21 mM^−1 cm^−1. Therefore, [O2^−] = (ΔOD/6.3) × 100, where ΔOD is the variation of the optical density (reading-blank), and the result obtained corresponds to the concentration of superoxide anion expressed in nanomoles of O2^− released/2 × 10^5 cells. MLF (5 µM) and amphotericin-B (AmB, 0.1 µM), known to induce NO production in macrophages, were included as controls.

[2] = test system: LTB0016 intracellular amastigotes in J774.1 macrophages; experiment: Macrophage-amastigote model, reference strain; type: cell-based, Leishmania amazonensis; conditions: for Growth (%) Exp1 Infección / Growth (%) Exp1 A/MØ / Growth (%) Exp1 A/100MØ / Growth (%) Exp1 %Control / Growth (%) Exp2 Infección / Growth (%) Exp2 A/MØ / Growth (%) Exp2 A/100MØ / Growth (%) Exp2 %Control / Growth (%) Exp3 Infección / Growth (%) Exp3 A/MØ / Growth (%) Exp3 A/100MØ / Growth (%) Exp3 %Control / Average A/100MØ: 72 h; for Growth (%) Exp1 Infección / Growth (%) Exp2 Infección / Growth (%) Exp3 Infección: % infected macrophages; for Growth (%) Exp1 A/MØ / Growth (%) Exp2 A/MØ / Growth (%) Exp3 A/MØ: amastigotes per infected macrophage; for Growth (%) Exp1 A/100MØ / Growth (%) Exp2 A/100MØ / Growth (%) Exp3 A/100MØ: infection index; for Growth (%) Exp1 %Control / Growth (%) Exp2 %Control / Growth (%) Exp3 %Control: infection index vs DMSO; for Average A/100MØ: average of Exp1-3
Description: We used a previously described methodology, with some modifications. Macrophage monolayers, grown in RMPIc medium, for 3 days, were detached from the bottom of the culture chamber, by physical treatment (low temperature and light strokes). Obtained macrophages were seeded in flat-bottom 96-well culture plates, at a density of 2 × 10^5 cells mL^−1 (40,000 macrophages/well), in a final volume of 200 µL. Plates were incubated for 2 h, and the supernatant was discarded to remove non-adhered macrophages. Medium was replaced with stationary-phase promastigotes suspended in 200 µL of RPMIc (2 × 10^6 parasites mL^−1, 400,000 parasites/well), at a macrophage: parasite ratio 1:10 [40]. The plates were incubated for 4 h. Afterwards the medium was replaced with fresh RPMIc and increasing concentrations of compounds or drugs tested were applied, in volumes of 2 µL, according to the different treatment groups. Plates were kept for 72 h, at 37 °C and 5% CO2. The medium was discarded and the wells were washed twice with PBS. Next, a Giemsa staining was performed in situ. It consisted of adding 200 µL of methanol/well, incubating for 5 min, discarding the fixative, and letting it dry at room temperature. Later, the Giemsa solution (10% in PBS w/v, 200 µL/well) was added, incubated for 10 min, and washed with PBS, allowing it to dry. Finally, the bottom of the plates was detached by percussion and the circular bottoms (wells) were fixed to slides with Permount synthetic resin, for later evaluation (Alcazar W., manuscript in preparation). Cell counting was performed with a 100× immersion objective. A minimum of 200 random macrophages were examined. The percentage of infected macrophages (% infection) and the average number of amastigotes present in infected macrophages (amastigotes) were determined. […] The infection rate represents the number of intracellular amastigotes per 100 macrophages evaluated. Additionally, the GI50 for the decrease in the infection rate was calculated. At least three independent experiments were performed. The effect of amphotericin-B (AmB) [Sigma-Aldrich, (St. Louis, MO, USA)] was included as positive control of the assay.

[3] = test system: L. (V.) braziliensis promastigotes, reference strain MHOM/BR/LTB300; conditions: reference strain MHOM/BR/LTB300; cited from earlier work

C=C(C)C1CCC2(C=NO)CCC3(C)C(CCC4C5(C)CCC(=NO)C(C)(C)C5CCC43C)C12 (stereo not shown) [Compound 18]
Superoxide production, infected macrophages [1]: induced superoxide production in infected macrophages; also recorded: inducing an oxidative burst and thus increasing O2^− production | SI (CC50/GI50) LTB0016 ([2]; J774.1 CC50 / intracellular amastigote GI50, Table 2): 240.45 | Growth (%) Exp1 Infección ([2]; LTB0016, 0.10 µM): 52.43% | Growth (%) Exp1 A/MØ ([2]; LTB0016, 0.10 µM): 3.54 | Growth (%) Exp1 A/100MØ ([2]; LTB0016, 0.10 µM): 185.69 | Growth (%) Exp1 %Control ([2]; LTB0016, 0.10 µM): 70.78% | Growth (%) Exp2 Infección ([2]; LTB0016, 0.10 µM): 57.50% | Growth (%) Exp2 A/MØ ([2]; LTB0016, 0.10 µM): 3.36 | Growth (%) Exp2 A/100MØ ([2]; LTB0016, 0.10 µM): 193.20 | Growth (%) Exp2 %Control ([2]; LTB0016, 0.10 µM): 90.86% | Growth (%) Exp3 Infección ([2]; LTB0016, 0.10 µM): 41.73% | Growth (%) Exp3 A/MØ ([2]; LTB0016, 0.10 µM): 2.66 | Growth (%) Exp3 A/100MØ ([2]; LTB0016, 0.10 µM): 111.00 | Growth (%) Exp3 %Control ([2]; LTB0016, 0.10 µM): 62.52% | Average A/100MØ ([2]; LTB0016, 0.10 µM): 163.30 | Growth (%) Exp1 Infección ([2]; LTB0016, 0.50 µM): 36.24% | Growth (%) Exp1 A/MØ ([2]; LTB0016, 0.50 µM): 3.35 | Growth (%) Exp1 A/100MØ ([2]; LTB0016, 0.50 µM): 121.51 | Growth (%) Exp1 %Control ([2]; LTB0016, 0.50 µM): 46.32% | Growth (%) Exp2 Infección ([2]; LTB0016, 0.50 µM): 32.38% | Growth (%) Exp2 A/MØ ([2]; LTB0016, 0.50 µM): 2.08 | Growth (%) Exp2 A/100MØ ([2]; LTB0016, 0.50 µM): 67.35 | Growth (%) Exp2 %Control ([2]; LTB0016, 0.50 µM): 31.68% | Growth (%) Exp3 Infección ([2]; LTB0016, 0.50 µM): 25.00% | Growth (%) Exp3 A/MØ ([2]; LTB0016, 0.50 µM): 2.29 | Growth (%) Exp3 A/100MØ ([2]; LTB0016, 0.50 µM): 57.25 | Growth (%) Exp3 %Control ([2]; LTB0016, 0.50 µM): 32.25% | Average A/100MØ ([2]; LTB0016, 0.50 µM): 82.04 | Growth (%) Exp1 Infección ([2]; LTB0016, 1.00 µM): 10.68% | Growth (%) Exp1 A/MØ ([2]; LTB0016, 1.00 µM): 3.15 | Growth (%) Exp1 A/100MØ ([2]; LTB0016, 1.00 µM): 33.68 | Growth (%) Exp1 %Control ([2]; LTB0016, 1.00 µM): 12.84% | Growth (%) Exp2 Infección ([2]; LTB0016, 1.00 µM): 24.45% | Growth (%) Exp2 A/MØ ([2]; LTB0016, 1.00 µM): 1.29 | Growth (%) Exp2 A/100MØ ([2]; LTB0016, 1.00 µM): 31.54 | Growth (%) Exp2 %Control ([2]; LTB0016, 1.00 µM): 14.83% | Growth (%) Exp3 Infección ([2]; LTB0016, 1.00 µM): 17.20% | Growth (%) Exp3 A/MØ ([2]; LTB0016, 1.00 µM): 3.00 | Growth (%) Exp3 A/100MØ ([2]; LTB0016, 1.00 µM): 51.60 | Growth (%) Exp3 %Control ([2]; LTB0016, 1.00 µM): 29.06% | Average A/100MØ ([2]; LTB0016, 1.00 µM): 38.94 | Growth (%) Exp1 Infección ([2]; LTB0016, 5.00 µM): 9.37% | Growth (%) Exp1 A/MØ ([2]; LTB0016, 5.00 µM): 1.83 | Growth (%) Exp1 A/100MØ ([2]; LTB0016, 5.00 µM): 17.18 | Growth (%) Exp1 %Control ([2]; LTB0016, 5.00 µM): 6.55% | Growth (%) Exp2 Infección ([2]; LTB0016, 5.00 µM): 17.07% | Growth (%) Exp2 A/MØ ([2]; LTB0016, 5.00 µM): 1.50 | Growth (%) Exp2 A/100MØ ([2]; LTB0016, 5.00 µM): 25.61 | Growth (%) Exp2 %Control ([2]; LTB0016, 5.00 µM): 12.04% | Growth (%) Exp3 Infección ([2]; LTB0016, 5.00 µM): 10.71% | Growth (%) Exp3 A/MØ ([2]; LTB0016, 5.00 µM): 2.75 | Growth (%) Exp3 A/100MØ ([2]; LTB0016, 5.00 µM): 29.45 | Growth (%) Exp3 %Control ([2]; LTB0016, 5.00 µM): 16.59% | Average A/100MØ ([2]; LTB0016, 5.00 µM): 24.08 | Growth (%) Exp1 Infección ([2]; LTB0016, 10.00 µM): 5.40% | Growth (%) Exp1 A/MØ ([2]; LTB0016, 10.00 µM): 1.67 | Growth (%) Exp1 A/100MØ ([2]; LTB0016, 10.00 µM): 9.00 | Growth (%) Exp1 %Control ([2]; LTB0016, 10.00 µM): 3.43% | Growth (%) Exp2 Infección ([2]; LTB0016, 10.00 µM): 11.23% | Growth (%) Exp2 A/MØ ([2]; LTB0016, 10.00 µM): 1.20 | Growth (%) Exp2 A/100MØ ([2]; LTB0016, 10.00 µM): 13.48 | Growth (%) Exp2 %Control ([2]; LTB0016, 10.00 µM): 6.34% | Growth (%) Exp3 Infección ([2]; LTB0016, 10.00 µM): 3.48% | Growth (%) Exp3 A/MØ ([2]; LTB0016, 10.00 µM): 3.00 | Growth (%) Exp3 A/100MØ ([2]; LTB0016, 10.00 µM): 10.44 | Growth (%) Exp3 %Control ([2]; LTB0016, 10.00 µM): 5.88% | Average A/100MØ ([2]; LTB0016, 10.00 µM): 10.97 | GI50 ([2]; LTB0016 intracellular amastigotes, GraphPad regression, read-out: GI50 (µM) Experiment 1 Regresion): 0.29 µM | GI50 ([2]; LTB0016 intracellular amastigotes, GraphPad regression, read-out: GI50 (µM) Experiment 2 Regresion): 0.34 µM | GI50 ([2]; LTB0016 intracellular amastigotes, GraphPad regression, read-out: GI50 (µM) Experiment 3 Regresion): 0.2 µM | GI50 ([2]; intracellular amastigotes, Supplementary Materials II, read-out: GI50 (µM) LTB0016, mean of three experiments): 0.278 µM and 0.28 µM | GI50 ([2]; summary bound for reference strain LTB0016 and patient isolates, read-out: GI50): < 1 µM | active concentration in L. (L.) braziliensis [3]: less than 10 µM
